Results as given in publication PMC8308836, “Albumin Nanoparticle Formulation for Heart-Targeted Drug Delivery: In Vivo Assessment of Congestive Heart Failure” (Pharmaceuticals, 2021).
Read-outs that look alike come from different tables or passages of the source.

What was measured:
[1] = test system: rat model of congestive heart failure
Description: Briefly, rats were anesthetized using 5% isoflurane, intubated, and mechanically ventilated at 80 breaths/minute. […] About 48 h after ligation of the artery, injections were performed using a 27-G needle. […] Group 3 (n = 8) received 250 μL bolus intravenous injection of 50 μg/kg MRN Lactate [39, 40]. […] Various endpoint measurements were taken as described in subsequent paragraphs.
Echocardiographic examinations were performed under inhaled isoflurane anesthesia (2.5% in oxygen, 500–700 mL/min). Transthoracic echocardiography was performed for each rat as a baseline before the surgery, 48 h post surgery, 60 min post injection, 24 h post injection, 48 h post injection, and 1-week post injection. Echocardiograms were obtained with a commercially available system (Micromaxx P04224; SonoSite, Bothell, WA, USA), equipped with a linear probe 7–13 MHz 25 mm footprint turbo transducer (P06519.11; SonoSite). Briefly, LV end-diastolic diameters (LVEDD) and end-systolic diameters (LVESD) were measured with M-mode tracings between the anterior and posterior walls from the parasternal short-axis view just below the level of the papillary muscles of the mitral valve [13]. The time of end-diastole was defined as time of maximum diameter of the LV in one heart cycle. Accordingly, end-systole was defined as the minimum diameter. Following the American Society of Echocardiology leading-edge method, two images on average were obtained in each view and averaged over three consecutive cycles [41]. The left-ventricular end-diastolic volume (LVEDV) and left-ventricular end-systolic volume (LVESV) were measured using the Teichholz formula [13].

[2] = Pharmacokinetics of milrinone in plasma after i.v. injection; assay type: in vivo, female Lewis rats; conditions: MRN dose 50 μg/kg, rat
Description: Amrinone was used as an internal standard.

IL-6 = assay: Serum cytokine measurement by ELISA: IL-6; assay type: in vivo, female Lewis rats; conditions: 1-week post treatment; i.v. injection, CHF rats, mean ± SD (n = 5)
Description: (§1) The cytokine analysis for levels of IL-6, IL-10, and tumor necrosis factor-alpha (TNF-α) was performed using commercially available ELISA kits (Abcam) according to the manufacturer’s instructions. Microtiter plates were precoated with a murine monoclonal antibody against the rat cytokine being measured. Standards of the analyte and serum samples were added in triplicate. The absorbance was read at 450 nm within 30 min of stopping the reaction and standard curves were plotted.

[3] = test system: rat model of congestive heart failure; assay: Serum safety and toxicity markers (liver and renal function); assay type: in vivo, female Lewis rats; conditions: CHF rats, i.v. injection; normal range 20–61 U/L
Description: Briefly, rats were anesthetized using 5% isoflurane, intubated, and mechanically ventilated at 80 breaths/minute. Via a left thoracotomy (through the fourth intercostal space), the LAD coronary artery was permanently ligated 2 mm from its origin with a 7/0 polypropylene suture (Ethicon Inc., Somerville, NJ, USA). […] About 48 h after ligation of the artery, injections were performed using a 27-G needle. Rats were randomized into five groups: Group 1 (n = 5) received an intravenous injection of 1 c.c. saline (Control). […] Group 4 (n = 5) received 250 μL intravenous injection of empty NPs in the same concentration as Group 1. […] Various endpoint measurements were taken as described in subsequent paragraphs. At 5 days post injection, all rats were killed by euthanasia.
Blood was collected via the jugular vein from the animals using a sterile 23 G/25 mm needle in the Microtainer® serum separator tubes (Becton Dickinson, Franklin Lakes, NJ, USA) for serum separation and in Plasma-EDTA tubes (Becton Dickinson, Franklin Lakes, NJ, USA) for plasma collection. The blood was allowed to clot at room temperature for 30 min and subsequently placed on ice until centrifugation. Serum was separated by low-speed centrifugation at 1500 rpm for 15 min at 4 °C and was frozen at −80 °C until analysis. […]

[4] = 24 h post treatment; i.v. injection 50 μg/kg, CHF rats, mean ± SD (n = 3)
Description: The surgery was performed in a blinded manner as previously mentioned [22, 38]. Briefly, rats were anesthetized using 5% isoflurane, intubated, and mechanically ventilated at 80 breaths/minute. Via a left thoracotomy (through the fourth intercostal space), the LAD coronary artery was permanently ligated 2 mm from its origin with a 7/0 polypropylene suture (Ethicon Inc., Somerville, NJ, USA). […] About 48 h after ligation of the artery, injections were performed using a 27-G needle. Rats were randomized into five groups: Group 1 (n = 5) received an intravenous injection of 1 c.c. saline (Control). […] Group 3 (n = 8) received 250 μL bolus intravenous injection of 50 μg/kg MRN Lactate [39, 40]. Group 4 (n = 5) received 250 μL intravenous injection of empty NPs in the same concentration as Group 1. […] Blood was collected 24 h post injection for milrinone quantification. […]
The milrinone in plasma samples was quantified using High Performance Liquid Chromatography (HPLC) LCMS-8060 (Shimadzu). […] All samples were reconstituted in 40 µL of mobile phase A and analyzed by LC-MS/MS. […] The gradient started at 95:5 A:B. Samples were quantified using the area under the curve (AUC) and a standard curve.

IL-10 = assay: Serum cytokine measurement by ELISA: IL-10; assay type: in vivo, female Lewis rats; conditions: 1-week post treatment; i.v. injection, CHF rats, mean ± SD (n = 5)
Description: as §1

[5] = 2 h time point; i.v., MRN dose 50 μg/kg, rat, mean ± SD (n = 4)
Description: The animals were randomized into three groups in a blinded manner. Group I (n = 6) was intravenously injected with 1 c.c. saline. […] Group III (n = 12) was intravenously injected with 250 μL of MRN Lactate containing 50 μg/kg MRN. Blood was collected from the jugular vein at the following timepoints: 0, 5, 15, 30, 45, 60, 120, and 360 min. The animals were euthanized by isoflurane/CO2. Organ tissues (heart, lungs, liver, and kidneys) were collected, washed, rinsed, and snap-frozen in liquid nitrogen.

TNF-α = assay: Serum cytokine measurement by ELISA: TNF-α; assay type: in vivo, female Lewis rats; conditions: 1-week post treatment; i.v. injection, CHF rats, mean ± SD (n = 5)
Description: as §1

[6] = i.v. injection group, 48 h Post Ligation (before treatment)
[7] = i.v. injection group, Baseline—Pre-Ligation (before treatment)
[8] = i.v. injection, 50 μg/kg milrinone, 1-week Post Injection
[9] = i.v. injection, 50 μg/kg milrinone, 60 min Post Injection
[10] = i.v. injection, 50 μg/kg milrinone, 24 h Post Injection
[11] = i.v. injection, 50 μg/kg milrinone, 48 h Post Injection

CC(O)C(=O)O.Cc1[nH]c(=O)c(C#N)cc1-c1ccncc1 [MRN Lactate, milrinone lactate]
Left Ventricular Ejection Fraction (LVEF) [1, 6]: 65.3 ± 2.3% | Left Ventricular Fractional Shortening (LVFS) [1, 6]: 34.3 ± 2.7% | Left Ventricular Ejection Fraction (LVEF) [1, 7]: 88.2 ± 1.8% | Left Ventricular Fractional Shortening (LVFS) [1, 7]: 52.6 ± 2.7% | Left Ventricular Ejection Fraction (LVEF) [1, 8]: 66.1 ± 4.2% | Left Ventricular Fractional Shortening (LVFS) [1, 8]: 30.8 ± 2.8% | Left Ventricular Ejection Fraction (LVEF) [1, 9]: 80.1 ± 3.3 % | Left Ventricular Fractional Shortening (LVFS) [1, 9]: 45.6 ± 3.2 % | Left Ventricular Ejection Fraction (LVEF) [1, 10]: 70.6 ± 3.6% | Left Ventricular Fractional Shortening (LVFS) [1, 10]: 33.6 ± 3.9% | Left Ventricular Ejection Fraction (LVEF) [1, 11]: 64.8 ± 4.3% | Left Ventricular Fractional Shortening (LVFS) [1, 11]: 30.2 ± 3.9% | milrinone concentration in plasma ([2]; 0 min): 334.2 ng/mL | milrinone concentration in plasma ([2]; 5 min, mean ± SD (n = 4)): 203.5 ± 45.3 ng/mL | milrinone concentration in plasma ([2]; 15 min, mean ± SD (n = 4)): 75.4 ± 6.2 ng/mL | milrinone concentration in plasma ([2]; 30 min, mean ± SD (n = 4)): 72.6 ± 12.4 ng/mL | milrinone concentration in plasma ([2]; 45 min, mean ± SD (n = 4)): 22.9 ± 11.2 ng/mL | milrinone concentration in plasma ([2]; 120 min, mean ± SD (n = 4)): 4.1 ± 1.5 ng/mL | milrinone concentration in plasma ([2]; 360 min, mean ± SD (n = 4)): 1.6 ± 0.1 ng/mL | AUC0-t ([2]; non-compartmental): 0.1043 µg·h/mL | AUC0-∞ ([2]; non-compartmental): 0.1067 µg·h/mL | CL (clearance) ([2]; non-compartmental): 0.47 L/h/kg | MRT (mean residence time) ([2]; non-compartmental): 49.1 min | Vss (apparent volume of distribution at steady state) ([2]; non-compartmental): 0.38 L/kg | Vz (apparent volume of distribution at elimination) ([2]; non-compartmental): 0.73 L/kg | t1/2 (half-life of plasma) ([2]; non-compartmental): 64.7 min | Serum IL-6 level (IL-6): 39.3 ± 2.7 pg/mL | Serum ALT level [3]: within the normal range | milrinone detected in plasma [4]: 0.3 ± 0.1 ng/mL | Serum IL-10 level (IL-10): 146.1 ± 24.7 pg/mL | MRN detected in heart [5]: 2.00 ± 1.01 ng/mL | MRN detected in kidneys [5]: 4.80 ± 0.6 ng/mL | MRN detected in liver [5]: 2.44 ± 0.23 ng/mL | Serum TNF-α level (TNF-α): 17.1 ± 2.8 pg/mL
